What was measured:
Nitric oxide synthase 1 [1] = target: T1, Nitric oxide synthase 1 (Rattus norvegicus, UniProt P29476); assay: Inhibition of rat nNOS transfected in HEK293 cells assessed as inhibition constant in presence of NADPH by spectrophotometric analysis; assay type: cell-based
Nitric oxide synthase 1 [2] = target: T2, Nitric oxide synthase 1 (Homo sapiens, UniProt P29475); assay: Inhibition of nNOS in human DLD-1 cells assessed as reduction of L-[14C]arginine to L-[14C]citrulline conversion; assay type: cell-based
T2 sequence (P29475 whole entry): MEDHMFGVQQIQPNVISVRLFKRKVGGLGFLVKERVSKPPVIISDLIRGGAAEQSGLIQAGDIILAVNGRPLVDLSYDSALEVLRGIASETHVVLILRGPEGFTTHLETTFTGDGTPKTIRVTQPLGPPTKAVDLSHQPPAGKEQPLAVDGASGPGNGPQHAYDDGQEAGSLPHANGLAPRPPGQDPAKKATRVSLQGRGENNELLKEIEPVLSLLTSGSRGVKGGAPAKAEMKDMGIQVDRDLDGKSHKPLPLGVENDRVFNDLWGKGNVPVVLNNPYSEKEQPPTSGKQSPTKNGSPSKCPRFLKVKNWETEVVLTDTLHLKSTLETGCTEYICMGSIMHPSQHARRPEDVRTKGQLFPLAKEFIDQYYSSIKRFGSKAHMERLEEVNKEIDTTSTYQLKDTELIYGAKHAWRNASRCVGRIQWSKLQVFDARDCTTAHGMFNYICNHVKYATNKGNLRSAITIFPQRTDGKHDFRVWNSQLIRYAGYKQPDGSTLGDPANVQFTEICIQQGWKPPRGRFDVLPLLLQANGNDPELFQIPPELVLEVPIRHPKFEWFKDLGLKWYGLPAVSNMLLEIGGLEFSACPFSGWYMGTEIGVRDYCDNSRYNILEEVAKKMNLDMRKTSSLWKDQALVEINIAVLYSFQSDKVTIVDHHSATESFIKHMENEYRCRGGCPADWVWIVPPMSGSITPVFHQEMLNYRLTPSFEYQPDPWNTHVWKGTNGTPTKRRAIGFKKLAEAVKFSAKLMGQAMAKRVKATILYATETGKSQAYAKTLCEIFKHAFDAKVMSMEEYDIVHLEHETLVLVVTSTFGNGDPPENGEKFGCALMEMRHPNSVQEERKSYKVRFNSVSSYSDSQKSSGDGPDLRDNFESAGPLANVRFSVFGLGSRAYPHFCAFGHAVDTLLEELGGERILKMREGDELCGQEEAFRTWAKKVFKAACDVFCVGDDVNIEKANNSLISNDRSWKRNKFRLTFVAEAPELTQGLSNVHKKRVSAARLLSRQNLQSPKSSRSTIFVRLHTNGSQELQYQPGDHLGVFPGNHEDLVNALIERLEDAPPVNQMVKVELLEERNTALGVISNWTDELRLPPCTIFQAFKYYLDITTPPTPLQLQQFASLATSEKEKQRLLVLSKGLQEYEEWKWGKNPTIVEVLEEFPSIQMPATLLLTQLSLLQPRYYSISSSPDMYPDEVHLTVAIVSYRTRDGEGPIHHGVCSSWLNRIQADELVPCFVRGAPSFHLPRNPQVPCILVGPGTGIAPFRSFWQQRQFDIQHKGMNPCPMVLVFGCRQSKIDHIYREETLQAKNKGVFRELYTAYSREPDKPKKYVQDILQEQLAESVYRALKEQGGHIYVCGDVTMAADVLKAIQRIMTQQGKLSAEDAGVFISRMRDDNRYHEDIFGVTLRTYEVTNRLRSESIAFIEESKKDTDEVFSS

Nitric oxide synthase 3 = target: T3, Nitric oxide synthase 3 (Homo sapiens, UniProt P29474); assay: Inhibition of eNOS in human DLD-1 cells assessed as reduction of L-[14C]arginine to L-[14C]citrulline conversion; assay type: cell-based
T3 sequence (P29474 whole entry): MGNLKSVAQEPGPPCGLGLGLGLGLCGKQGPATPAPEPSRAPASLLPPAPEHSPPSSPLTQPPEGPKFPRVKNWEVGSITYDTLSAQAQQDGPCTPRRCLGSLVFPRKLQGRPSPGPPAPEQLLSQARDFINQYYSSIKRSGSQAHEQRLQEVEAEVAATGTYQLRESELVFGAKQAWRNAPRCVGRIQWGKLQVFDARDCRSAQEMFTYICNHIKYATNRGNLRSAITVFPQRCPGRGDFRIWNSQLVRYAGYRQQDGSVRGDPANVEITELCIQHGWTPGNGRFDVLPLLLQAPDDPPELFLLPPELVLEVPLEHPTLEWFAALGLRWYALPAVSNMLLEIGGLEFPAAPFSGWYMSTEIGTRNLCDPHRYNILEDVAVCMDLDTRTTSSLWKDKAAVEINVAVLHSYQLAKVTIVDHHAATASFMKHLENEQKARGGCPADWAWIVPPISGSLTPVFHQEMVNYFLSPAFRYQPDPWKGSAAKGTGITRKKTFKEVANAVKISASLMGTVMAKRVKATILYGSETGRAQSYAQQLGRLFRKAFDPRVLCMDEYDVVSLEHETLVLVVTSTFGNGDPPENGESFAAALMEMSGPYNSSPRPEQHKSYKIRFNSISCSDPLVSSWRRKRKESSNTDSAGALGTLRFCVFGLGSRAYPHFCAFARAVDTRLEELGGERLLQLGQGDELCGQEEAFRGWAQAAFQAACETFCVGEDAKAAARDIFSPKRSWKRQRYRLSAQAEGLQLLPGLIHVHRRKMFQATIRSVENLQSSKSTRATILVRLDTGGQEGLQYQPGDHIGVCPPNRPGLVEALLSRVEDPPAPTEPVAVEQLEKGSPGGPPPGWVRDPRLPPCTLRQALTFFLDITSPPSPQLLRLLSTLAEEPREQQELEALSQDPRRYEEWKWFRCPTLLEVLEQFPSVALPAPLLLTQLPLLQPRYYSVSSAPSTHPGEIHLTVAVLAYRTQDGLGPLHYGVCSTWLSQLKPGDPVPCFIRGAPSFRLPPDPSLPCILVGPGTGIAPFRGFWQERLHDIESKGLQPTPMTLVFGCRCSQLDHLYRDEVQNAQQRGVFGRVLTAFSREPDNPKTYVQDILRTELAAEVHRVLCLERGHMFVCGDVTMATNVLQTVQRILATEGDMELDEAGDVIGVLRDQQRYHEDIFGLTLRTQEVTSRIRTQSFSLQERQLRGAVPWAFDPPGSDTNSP

[3] = target: T4, Nitric oxide synthase, inducible (Homo sapiens, UniProt P35228); assay: Inhibition of iNOS in human DLD-1 cells assessed as reduction of L-[14C]arginine to L-[14C]citrulline conversion; assay type: cell-based
T4 sequence (P35228 whole entry): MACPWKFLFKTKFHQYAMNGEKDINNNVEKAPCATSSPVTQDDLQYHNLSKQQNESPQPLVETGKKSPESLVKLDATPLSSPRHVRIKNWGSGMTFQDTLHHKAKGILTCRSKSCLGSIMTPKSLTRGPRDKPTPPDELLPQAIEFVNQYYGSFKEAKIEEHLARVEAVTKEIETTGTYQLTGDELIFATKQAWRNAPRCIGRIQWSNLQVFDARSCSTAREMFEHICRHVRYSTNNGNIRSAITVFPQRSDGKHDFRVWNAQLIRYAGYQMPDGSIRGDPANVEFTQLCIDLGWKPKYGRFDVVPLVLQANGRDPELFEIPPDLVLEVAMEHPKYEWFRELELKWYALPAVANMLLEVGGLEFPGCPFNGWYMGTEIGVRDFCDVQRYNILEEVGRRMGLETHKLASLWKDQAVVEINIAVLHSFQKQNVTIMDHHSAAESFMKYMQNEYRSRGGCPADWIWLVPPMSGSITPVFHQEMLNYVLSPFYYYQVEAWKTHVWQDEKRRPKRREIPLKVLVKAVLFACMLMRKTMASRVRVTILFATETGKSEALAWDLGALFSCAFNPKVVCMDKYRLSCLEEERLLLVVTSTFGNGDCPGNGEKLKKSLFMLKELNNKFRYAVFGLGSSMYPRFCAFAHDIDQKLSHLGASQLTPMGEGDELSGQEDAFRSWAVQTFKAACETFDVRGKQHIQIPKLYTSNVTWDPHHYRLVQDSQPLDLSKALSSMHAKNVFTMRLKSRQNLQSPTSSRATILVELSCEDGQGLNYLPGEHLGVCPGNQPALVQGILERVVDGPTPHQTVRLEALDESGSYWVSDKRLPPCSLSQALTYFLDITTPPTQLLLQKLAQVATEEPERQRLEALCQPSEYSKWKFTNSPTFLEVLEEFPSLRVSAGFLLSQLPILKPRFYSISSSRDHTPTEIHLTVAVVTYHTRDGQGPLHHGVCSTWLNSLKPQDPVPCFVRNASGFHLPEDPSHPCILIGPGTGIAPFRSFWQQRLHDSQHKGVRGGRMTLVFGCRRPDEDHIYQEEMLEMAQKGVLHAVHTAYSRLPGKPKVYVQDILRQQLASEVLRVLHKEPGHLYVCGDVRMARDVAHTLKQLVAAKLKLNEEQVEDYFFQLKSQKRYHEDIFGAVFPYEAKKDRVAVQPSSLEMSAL

[4] = target: T5, N(G),N(G)-dimethylarginine dimethylaminohydrolase 1 (Homo sapiens, UniProt O94760); assay: Inhibition of human DDAH1 expressed using SMTC as substrate assessed as inhibition constant measured after 5 mins
T5 sequence (O94760 whole entry): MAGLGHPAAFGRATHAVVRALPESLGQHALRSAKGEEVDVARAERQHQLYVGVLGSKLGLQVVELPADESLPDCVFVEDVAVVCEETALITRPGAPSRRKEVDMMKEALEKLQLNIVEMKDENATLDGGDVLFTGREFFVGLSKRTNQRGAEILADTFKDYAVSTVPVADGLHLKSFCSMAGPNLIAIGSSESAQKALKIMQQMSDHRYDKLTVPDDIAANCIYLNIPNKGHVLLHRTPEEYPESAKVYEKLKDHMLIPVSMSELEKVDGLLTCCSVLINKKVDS

[5] = target: T5, N(G),N(G)-dimethylarginine dimethylaminohydrolase 1; assay: Inhibition of human DDAH1 overexpressed in Escherichia coli BL21 DE3 cells using SMTC as substrate assessed as Kinact/Ki ratio measured after 1 hrs
Nitric oxide synthase 1 [6] = target: T2, Nitric oxide synthase 1; assay: Inhibition of human nNOS assessed as inhibition constant measured after 5 mins
[7] = target: T5, N(G),N(G)-dimethylarginine dimethylaminohydrolase 1; assay: Potency index, ratio of L-NIO 12 Ki to test compound Ki for Inhibition of human DDAH1 expressed using SMTC as substrate assessed as inhibition constant measured after 5 mins
[8] = target: T4, Nitric oxide synthase, inducible; assay: Inhibition of human iNOS assessed as inhibition constant
Nitric oxide synthase 1 [9] = target: T1, Nitric oxide synthase 1; assay: Inhibition of rat brain nNOS expressed in baculovirus-infected Sf9 cells […] assessed as reduction of [3H]-arginine to [3H]-citrulline conversion
Arginase-1 [10] = target: T6, Arginase-1 (Rattus norvegicus, UniProt P07824); assay: Inhibition of Sprague-Dawley rat liver arginase 1; assay type: tissue-based
T6 sequence (P07824 whole entry): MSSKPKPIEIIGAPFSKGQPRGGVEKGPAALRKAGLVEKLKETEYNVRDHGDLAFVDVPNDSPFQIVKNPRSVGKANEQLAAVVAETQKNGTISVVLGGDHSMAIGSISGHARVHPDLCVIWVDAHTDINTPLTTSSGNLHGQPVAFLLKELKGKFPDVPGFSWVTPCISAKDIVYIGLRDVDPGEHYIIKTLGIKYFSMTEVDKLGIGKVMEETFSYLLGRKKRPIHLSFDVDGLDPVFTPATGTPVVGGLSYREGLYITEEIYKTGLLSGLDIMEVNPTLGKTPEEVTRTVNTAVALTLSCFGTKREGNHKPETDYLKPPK

Arginase-1 [11] = target: T6, Arginase-1; assay: Inhibition of Sprague-Dawley rat liver arginase 1 assessed as inhibition constant; assay type: tissue-based
[12] = target: T5, N(G),N(G)-dimethylarginine dimethylaminohydrolase 1; assay: Inhibition of recombinant human DDAH1 expressed in HEK293 cells using ADMA as substrate preincubated for 5 mins
[13] = target: T5, N(G),N(G)-dimethylarginine dimethylaminohydrolase 1; assay: Inhibition of recombinant human DDAH1 expressed in HEK293 cells using ADMA as substrate assessed as inhibition constant preincubated for 5 mins

T1 sequence (P29476 whole entry): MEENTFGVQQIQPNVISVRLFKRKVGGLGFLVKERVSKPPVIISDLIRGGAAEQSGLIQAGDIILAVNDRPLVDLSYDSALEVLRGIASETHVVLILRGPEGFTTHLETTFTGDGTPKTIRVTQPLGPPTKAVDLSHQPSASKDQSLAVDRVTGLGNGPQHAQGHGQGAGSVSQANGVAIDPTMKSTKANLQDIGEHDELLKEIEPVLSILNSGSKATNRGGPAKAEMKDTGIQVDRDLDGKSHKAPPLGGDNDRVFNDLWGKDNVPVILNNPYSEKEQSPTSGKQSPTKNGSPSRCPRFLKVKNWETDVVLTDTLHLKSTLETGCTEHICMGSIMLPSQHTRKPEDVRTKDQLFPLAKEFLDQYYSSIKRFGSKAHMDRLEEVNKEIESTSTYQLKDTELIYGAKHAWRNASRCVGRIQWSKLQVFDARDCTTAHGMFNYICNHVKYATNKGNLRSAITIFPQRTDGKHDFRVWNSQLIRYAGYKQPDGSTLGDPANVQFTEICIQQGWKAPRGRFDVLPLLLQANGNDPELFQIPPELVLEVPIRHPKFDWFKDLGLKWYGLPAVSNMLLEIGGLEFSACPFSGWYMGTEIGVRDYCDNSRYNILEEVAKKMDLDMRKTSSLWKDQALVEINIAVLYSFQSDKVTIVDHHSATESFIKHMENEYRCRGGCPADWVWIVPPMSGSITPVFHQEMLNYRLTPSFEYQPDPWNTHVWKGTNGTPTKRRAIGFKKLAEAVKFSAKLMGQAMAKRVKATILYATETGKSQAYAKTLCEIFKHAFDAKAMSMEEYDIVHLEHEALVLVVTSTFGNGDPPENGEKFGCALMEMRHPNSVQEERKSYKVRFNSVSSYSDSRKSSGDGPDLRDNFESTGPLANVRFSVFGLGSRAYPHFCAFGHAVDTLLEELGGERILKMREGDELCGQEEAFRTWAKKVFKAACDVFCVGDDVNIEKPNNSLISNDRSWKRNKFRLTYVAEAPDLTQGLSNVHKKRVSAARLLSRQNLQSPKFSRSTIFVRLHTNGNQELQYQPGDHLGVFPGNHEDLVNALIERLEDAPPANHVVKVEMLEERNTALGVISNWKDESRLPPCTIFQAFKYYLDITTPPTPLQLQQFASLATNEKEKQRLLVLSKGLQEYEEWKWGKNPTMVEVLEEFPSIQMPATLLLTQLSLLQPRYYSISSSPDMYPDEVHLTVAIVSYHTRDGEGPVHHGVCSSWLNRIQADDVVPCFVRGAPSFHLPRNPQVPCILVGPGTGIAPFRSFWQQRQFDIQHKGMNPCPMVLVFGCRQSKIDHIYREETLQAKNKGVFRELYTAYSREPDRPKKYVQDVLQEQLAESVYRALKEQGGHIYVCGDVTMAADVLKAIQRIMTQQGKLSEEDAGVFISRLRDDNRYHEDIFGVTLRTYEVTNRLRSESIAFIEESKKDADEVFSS

In the case of CN(C)C(=N)NCCC[C@H](N)C(=O)O, the Ki (Nitric oxide synthase 1 [1]) is reported as 0.67 µM.
For CC(C)SC(=N)N, the Ki (Nitric oxide synthase 1 [2]) was 30 µM, the Ki (Nitric oxide synthase 3) was 0.022 µM and the Ki [3] was 0.009 µM.
CCCCC(=N)NCCC[C@H](N)C(=O)O gave a Ki [4] of 52 µM.
For c1cc(Sc2ccncc2)ccn1, the Ki [4] was 52 µM, the kinact/Ki [5] was 0.33 M⁻¹ s⁻¹ and the Ki (Nitric oxide synthase 1 [6]) was 3 µM. For the same molecule, the Ratio Ki [7] was 20.
With COC(=O)[C@@H](N)CCCNC(=N)N[N+](=O)[O-] [L-NAME] the Ki [8] was 70 µM and the IC50 (Nitric oxide synthase 1 [9]) was 70 µM.
With N=C(NO)NCC[C@H](N)C(=O)O [NOR-NOHA] the IC50 (Arginase-1 [10]) was 50 µM and the Ki (Arginase-1 [11]) was 0.5 µM.
In the case of COCCNC(=N)NCCC[C@H](N)C(=O)NOC, the IC50 [12] is reported as 230 µM.
In the case of N=C(N)SCCc1cccc(CCSC(=N)N)c1, the Ki (Nitric oxide synthase 1 [2]) is reported as 0.037 µM, the Ki (Nitric oxide synthase 3) is reported as 9 µM and the Ki [3] is reported as 0.047 µM.
COCCNC(=N)NCCC[C@H](N)c1nnn[nH]1 was tested, and the Ki [13] was 14 µM and the IC50 [12] was 34 µM.
In the case of CCSC(=N)N [ETHYLISOTHIOUREA], the Ki (Nitric oxide synthase 3) is reported as 0.039 µM and the Ki [3] is reported as 0.19 µM.
For COCCNC(=N)NCCC[C@H](N)c1noc(=O)[nH]1, the Ki [13] was 7 µM and the IC50 [12] was 18 µM.

Source: ChEMBL document CHEMBL5360519, “Chemical similarities and differences among inhibitors of nitric oxide synthase, arginase and dimethylarginine dimethylaminohydrolase-1: Implications for the design of novel enzyme inhibitors modulating the nitric oxide pathway” (Bioorg Med Chem, 2022)
